We go through eleven molecules from patent publication US20080103105A1, “HMG CoA REDUCTASE MEDIATED MODULATION OF NEUROGENESIS” (BrainCells, Inc., priority 2006, published 2008).

Read-outs that look alike come from different tables or passages of the source.

One experiment addresses mGluR2 (Homo sapiens, UniProt Q14416). As to conditions: read-out: IC50 against mGluR2; cited from earlier work.
The subject of experiment [1] is Group I and Group III receptors. As to conditions: at sub-mM concentrations; cited from earlier work.
For the next experiment, the target named is mGluR3 (Homo sapiens, UniProt Q14832). The settings on record: read-out: IC50 against mGluR3; cited from earlier work.
A further experiment concerns the target human mGlu2 (Homo sapiens, UniProt Q14416). As to conditions: low nanomolar range; read-out: EC50 against human mGlu2 receptors in vitro; cited from earlier work.
Another experiment addresses human mGlu3 (Homo sapiens, UniProt Q14832). As to conditions: low nanomolar range; read-out: EC50 against human mGlu3 receptors in vitro; cited from earlier work.
The subject of experiment [2] is KA, AMPA, and NMDA iGlu receptors. The settings on record: cited from earlier work.
The subject of experiment [3] is Human neural stem cells (hNSCs). As to the kind of experiment: Neuronal differentiation of human neural stem cells (TUJ-1 staining). Type of experiment: cell-based. As to conditions: for EC50: agent alone. The text has this: In one non-limiting example neurogenesis, a neurogenic response, and neurodifferentiation are all measured in an in vitro assay as follows. Human neural stem cells (hNSCs) are isolated and grown in monolayer culture, plated, treated with varying concentrations of a first neurogenic agent, or a combination of a first neurogenic agent with one or more additional neurogenic agents (test compound), and stained with TUJ-1 antibody to identify neurons and/or GFAP to identify astrocytes, as described in PCT Application No. US06/026677. Mitogen-free test media with a positive control is used for neuronal differentiation, and basal media without growth factors serves as a negative control. Neurogenesis is determined, for example, by measuring the proliferation and/or differentiation of the hNSCs in the presence of varying concentrations of test compound compared to the absence of the test compound (negative control). A neurogenic response is measured, for example, in a similar manner to neurogenesis, except that astrogenesis is also measured and the ratio of neurogenesis to astrogenesis is determined to measure the neurogenic response. Neurodifferentiation is measured, for example, by detecting neurodifferentiation specific expression markers which methods are known in the art.
Human neural stem cells (hNSCs) were isolated and grown in monolayer culture, plated, treated with varying concentrations of atorvastatin (test compound), and stained with TUJ-1 antibody, as described in U.S. Provisional Application No. 60/697,905 (U.S. Patent Publication 2007/0015138). Mitogen-free test media with a positive control for neuronal differentiation was used along with basal media without growth factors as a negative control.
Human neural stem cells (hNSCs) were isolated and grown in monolayer culture, plated, treated with varying concentrations of atorvastatin in the presence or absence of buspirone, and stained with TUJ-1 antibody for the detection of neuronal differentiation or GFAP antibody for the detection of astrocyte differentiation, as described in U.S. Provisional Application No. 60/697,905 (U.S. Patent Publication 2007/0015138). Mitogen-free test media with a positive control for neuronal differentiation was used along with basal media without growth factors as a negative control.
Human neural stem cells (hNSCs) were isolated and grown in monolayer culture, plated, treated with varying concentrations of atorvastatin in the presence or absence of ribavirin, and stained with TUJ-1 antibody for the detection of neuronal differentiation or GFAP antibody for the detection of astrocyte differentiation, as described in U.S. Provisional Application No. 60/697,905 (U.S. Patent Publication 2007/0015138). Mitogen-free test media with a positive control for neuronal differentiation was used along with basal media without growth factors as a negative control.
Human neural stem cells (hNSCs) were isolated and grown in monolayer culture, plated, treated with varying concentrations of atorvastatin in the presence or absence of tacrine, and stained with TUJ-1 antibody for the detection of neuronal differentiation or GFAP antibody for the detection of astrocyte differentiation, as described in U.S. Provisional Application No. 60/697,905 (U.S. Patent Publication 2007/0015138). Mitogen-free test media with a positive control for neuronal differentiation was used along with basal media without growth factors as a negative control.
Human neural stem cells (hNSCs) were isolated and grown in monolayer culture, plated, treated with varying concentrations of atorvastatin in the presence or absence of azakenpaullone, and stained with TUJ-1 antibody for the detection of neuronal differentiation or GFAP antibody for the detection of astrocyte differentiation, as described in U.S. Provisional Application No. 60/697,905 (U.S. Patent Publication 2007/0015138). […]

The test system of experiment [4] is BrdU positive cells within the granule cell layer of the dentate gyrus. Here is the method: Male F344 rats were dosed 1× per day for 28-days with vehicle (n=12 per dose group, p.o.), 5.0 mg/kg fluoxetine (n=12 per dose group, p.o.), 15.0 mg/kg fluoxetine (n=12 per dose group, p.o.), 10.0 mg/kg atorvastatin (n=12 per dose group, p.o.) or the combination of fluoxetine (5.0 mg/kg, p.o.)+atorvastatin (10.0 mg/kg, p.o.).
Male F344 rats were dosed 1× per day for 21-days with 0 (vehicle only), 5.0 mg/kg fluoxetine (n=12 per dose group, p.o.), 15.0 mg/kg fluoxetine (n=12 per dose group, p.o.), 10.0 mg/kg atorvastatin (n=12 per dose group, p.o.) or the combination of fluoxetine (5.0 mg/kg, p.o.)+atorvastatin (10.0 mg/kg, p.o.). BrdU was administered once daily between days 9 and 14 (100 mg/kg/day, i.p., n=12 per dose group). […] Data are presented as percent change in BrdU positive cells per cubic mm dentate gyrus. […] Data are presented as the percentage of cells colabeled for BrdU and the mature neuronal marker NeuN within the dentate gyrus.

The mark [5] stands for this setting: Homo sapiens, Neural stem cell, maximum fixed to 120% for all conditions, read-out: EC50, neuronal differentiation, agent alone, maximum percent of positive control fixed to a common 120%.
Setting [6] is: Homo sapiens, Neural stem cell, percentage of neuronal positive control, basal media values subtracted, read-out: EC50, neuronal differentiation, agent used alone.

mGluR2, sequence (Q14416 19-872): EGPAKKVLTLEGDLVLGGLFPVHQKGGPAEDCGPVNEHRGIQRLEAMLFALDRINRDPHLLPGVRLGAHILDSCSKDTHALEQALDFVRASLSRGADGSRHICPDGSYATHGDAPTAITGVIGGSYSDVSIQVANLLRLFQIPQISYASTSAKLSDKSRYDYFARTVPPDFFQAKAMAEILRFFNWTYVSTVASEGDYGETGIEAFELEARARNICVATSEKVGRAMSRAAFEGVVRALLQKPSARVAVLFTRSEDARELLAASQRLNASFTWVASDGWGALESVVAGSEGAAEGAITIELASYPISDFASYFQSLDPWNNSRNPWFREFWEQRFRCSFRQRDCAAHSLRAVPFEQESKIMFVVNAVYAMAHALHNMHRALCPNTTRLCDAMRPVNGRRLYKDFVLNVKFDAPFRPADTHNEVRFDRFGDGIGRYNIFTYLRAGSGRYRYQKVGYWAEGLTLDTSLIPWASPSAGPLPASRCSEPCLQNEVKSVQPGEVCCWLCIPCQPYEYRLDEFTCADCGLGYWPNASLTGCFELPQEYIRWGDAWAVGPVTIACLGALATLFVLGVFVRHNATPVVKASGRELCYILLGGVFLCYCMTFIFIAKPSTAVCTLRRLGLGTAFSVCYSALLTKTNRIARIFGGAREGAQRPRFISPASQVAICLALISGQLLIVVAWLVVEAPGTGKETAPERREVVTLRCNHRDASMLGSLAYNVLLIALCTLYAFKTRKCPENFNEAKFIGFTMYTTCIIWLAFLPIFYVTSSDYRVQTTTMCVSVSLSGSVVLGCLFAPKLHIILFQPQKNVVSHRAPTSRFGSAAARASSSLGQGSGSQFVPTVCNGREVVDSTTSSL
human mGlu2, sequence (Q14416 19-872): as above
mGluR3, sequence (Q14832 23-879): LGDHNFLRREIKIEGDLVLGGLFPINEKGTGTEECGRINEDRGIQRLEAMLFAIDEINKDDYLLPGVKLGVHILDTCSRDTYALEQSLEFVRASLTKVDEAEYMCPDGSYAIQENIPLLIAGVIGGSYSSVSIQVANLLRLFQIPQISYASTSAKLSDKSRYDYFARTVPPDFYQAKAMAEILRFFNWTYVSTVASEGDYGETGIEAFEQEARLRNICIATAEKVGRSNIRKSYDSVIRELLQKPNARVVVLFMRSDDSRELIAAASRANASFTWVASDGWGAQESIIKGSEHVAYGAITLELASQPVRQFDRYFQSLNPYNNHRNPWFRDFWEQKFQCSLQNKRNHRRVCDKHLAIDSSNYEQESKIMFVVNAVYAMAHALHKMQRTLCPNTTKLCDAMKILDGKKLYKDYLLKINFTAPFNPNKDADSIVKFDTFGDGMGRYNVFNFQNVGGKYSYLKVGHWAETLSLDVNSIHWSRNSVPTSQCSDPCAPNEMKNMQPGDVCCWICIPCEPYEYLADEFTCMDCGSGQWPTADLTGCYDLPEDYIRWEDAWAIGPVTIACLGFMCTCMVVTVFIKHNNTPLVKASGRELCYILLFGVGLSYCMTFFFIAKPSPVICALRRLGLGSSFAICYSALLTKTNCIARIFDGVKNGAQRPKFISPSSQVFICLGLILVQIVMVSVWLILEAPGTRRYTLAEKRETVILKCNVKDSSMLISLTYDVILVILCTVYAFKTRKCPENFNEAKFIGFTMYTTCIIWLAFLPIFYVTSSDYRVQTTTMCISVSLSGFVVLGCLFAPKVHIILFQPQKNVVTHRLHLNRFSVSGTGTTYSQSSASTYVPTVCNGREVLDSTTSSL
human mGlu3, sequence (Q14832 23-879): as above

The IC50 is the concentration at which inhibition is half-maximal. For `NC1(C(=O)O)CCc2cc(P(=O)(O)O)ccc21` (racemic) [APICA, (RS)-1-amino-5-phosphonoindan-1-carboxylic acid], the IC50 on mGluR2 and at mGluR3 was about 30 µM in each case. In experiment [1], the “activity against Group I or Group III receptors” value was “no appreciable activity”.

For orientation: EC50 means the concentration giving half of the maximal effect. In the case of `NC1(C(=O)O)COC2C(C(=O)O)C21` (single isomer, unassigned; (-)) [LY379268, (−)-2-Oxa-4-aminobicyclohexane-4,6-dicarboxylic acid], the EC50 at human mGlu2 and on human mGlu3 was under 0.01 µM throughout.

As for `N[C@](CC1c2ccccc2Oc2ccccc21)(C(=O)O)[C@H]1C[C@@H]1C(=O)O` [LY341495, (2S)-2-amino-2-(1S,2S-2-carboxycycloprop-1-yl)-3-(xanth-9-yl) propanoic acid], the “activity against KA, AMPA, and NMDA iGlu receptors” value in experiment [2] is “substantially inactive”.

For `Clc1ccc2c(c1)N=C(N1CCNCC1)c1ccccc1N2` [N-desmethylclozapine], in experiment [3], the “neurogenic activity in assays as disclosed herein” value is recorded as “highly neurogenic”.

As for `CC(C)c1c(C(=O)Nc2ccccc2)c(-c2ccccc2)c(-c2ccc(F)cc2)n1CC[C@@H](O)C[C@@H](O)CC(=O)O` [atorvastatin], in experiment [4] (10.0 mg/kg atorvastatin p.o. 1× per day), the “number of BrdU positive cells (percent change per cubic mm dentate gyrus)” value is “significantly increased”. Moreover, the “number of new neurons within the granule cell layer of the dentate gyrus” value in experiment [4] (atorvastatin 10.0 mg/kg p.o. alone or with fluoxetine 5.0 mg/kg p.o., 1× per day) was “significant increase”. The EC50 in experiment [3] (setting [5]) was 0.004 µM; in experiment [3] (percentage of neuronal positive control, basal media values subtracted, read-out: EC50, neuronal differentiation, agent used alone) it was 0.0031 µM. Further, the “neuronal differentiation, result in words” value in experiment [3] (percent of neuronal positive control, combination relative to either agent alone) is reported as “promoted neuronal differentiation”.

On to `O=C1Cc2c([nH]c3ccc(Br)cc23)-c2ncccc2N1` [azakenpaullone], for which the EC50 in experiment [3] (setting [5]) came to 0.33 µM; in experiment [3] (setting [6]) it was 1.1 µM. The “maximum percent of positive control neuronal differentiation” value in experiment [3] (addition of azakenpaullone) is “greater than 100%”.

For the molecule `O=C1CC2(CCCC2)CC(=O)N1CCCCN1CCN(c2ncccn2)CC1` [buspirone], the EC50 in experiment [3] (setting [6]) was 5.8 µM.

In the case of `Nc1nc2ncc(CNc3ccc(C(=O)N[C@@H](CCC(=O)O)C(=O)O)cc3)nc2c(=O)[nH]1` [folic acid], the EC50 in experiment [3] (setting [6]) is 4.8 µM.

Consider `NC(=O)c1ncn([C@@H]2O[C@H](CO)[C@@H](O)[C@H]2O)n1` [ribavirin], for which the EC50 in experiment [3] (setting [6]) worked out at 3.8 µM.

Turning to `NCCc1c[nH]c2ccc(O)cc12` [serotonin], the EC50 in experiment [3] (setting [6]) was 4.5 µM.

In the case of `Nc1c2c(nc3ccccc13)CCCC2` [tacrine], the EC50 in experiment [3] (setting [6]) came out at 7.4 µM.
